From patent US10080764B2, “Topical minocycline compositions and methods of using the same” (Laboratory Skin Care, Inc., priority 2011, dated 2018)

Assays:
Assay type in all cases: physicochemical
[1] = Minocycline stability in water, 6 days at room temperature, HPLC of supernatant; details: capped glass vial
Source text: The vials were then centrifuged and the supernatant analyzed by HPLC.

[2] = Fluorescence of bulk powders under white and UV black light; details: 25 mg MNC/g Hydroxysomes
[3] = Binding of minocycline HCl to Hydroxysomes and release (pH dependence); details: for pH at which minocycline attaches (binds) to Hydroxysomes: binding suspension in water, shaken 30 min, monohydrochloride
Experimental: Hydroxysomes® (calcium phosphate particles, Laboratory Skin Care, San Carlos, Calif.) were suspended in water. […] The final pH of the suspension was adjusted to 6.2 to 8.0 with add. The binding suspension was mixed by shaking for 30 min. The binding suspensions were centrifuged at 10,000 rpm for 10 min in the bench top microcentrifuge. The supernatants were analyzed with the Shimadzu spectrophotometer to quantify the free minocycline. The bound minocycline was calculated by subtracting the amount of the minocycline detected in the supernatant, from the total initial amount in the binding suspension. The total initial minocycline absorbance at the binding pH was calculated from the linearity equation of the standard plot. • Controls: Minocycline solution at the same pH with the same concentration as in the binding mixture. D. Example Formulation

## CN(C)c1ccc(O)c2c1C[C@H]1C[C@H]3[C@H](N(C)C)C(O)=C(C(N)=O)C(=O)[C@@]3(O)C(O)=C1C2=O.Cl [Minocycline HCl, 4,7-Bis(dimethylamino) 1,4,4a,5,5a,6,11,12a-octahydro-3,10,12,12a-tetrahydroxy-1,11-dioxo-2-naphthacenecarboxamide monohydrochloride]
[1]
  degradation by HPLC analysis of supernatant: substantial degradation
  visible discoloration of vial: visibly discolored
[2]
  fluorescence of bulk powder under black light: Intense yellow-orange fluorescence
[3]
  pH at which minocycline associated with Hydroxysomes is unstable (releases): acidic pH
  pH at which minocycline attaches (binds) to Hydroxysomes: neutral or alkaline pH
[3]; listed as Minocycline
  pH at which minocycline attaches (binds) to Hydroxysomes: 6.2-8.0
